In patent US12180084B2, “Cerium (III) carbonate formulations” (THE REGENTS OF THE UNIVERSITY OF CALIFORNIA, priority 2019, dated 2024):

Experiments:
[1] = CR organic dye photodegradation in dried acrylic paint film under sunlight; details: 6 h sunlight
Excerpt: To investigate the effectiveness of this approach in a dry (solid) composition, Congo Red (CR) organic dye at a concentration of 3×10^−5 M was incorporated into a waterborne acrylic paint formulation dispersion, together with P25 photocatalyst (10 wt % relative to the Ti-Pure R706 pigment weight used in the dispersion).
A composition was made with 16% Ce (III)-R706 pigment volume concentration comprising CR organic dye (the pigment volume concentration is defined as the volume percentage of solid particles in the system after formation of the composition (e.g., excluding water). This was performed by first preparing a 75 wt % aqueous slurry of Ce (III)-R706 pigment by high shear mixing in presence of 0.3 wt % TAMOL™ 1124 with respect to the weight of pigment. 4.64 g of this slurry was incorporated in 12.78 g of acrylic-based BP 8164 polymer (obtained from the Dow Chemical Company), to which was added 1.966 mL of 3.5×10^−4 M CR aqueous dye solution, and 10 wt % P25 photocatalyst (with respect to pigment weight). The resulting dispersion was mixed under high-shear conditions in a high speed mixer.
Thereafter, 0.6 g of 2020E thickener (a non-ionic urethane rheology modifier) was added into the slurry, and the resulting dispersion was mixed under high-shear conditions in a high-speed mixer, to obtain the final formulation dispersion. The solid (dried) film coating was prepared with a 3 mil (1 mil=0.001 inch) bar applicator on a polyacrylic substrate and dried for 48 h prior to conducting the photocatalysis experiments. During photocatalysis, all the coatings were exposed to sunlight (under similar conditions) for an exposure period of 6 hours. Prior to sunlight exposure, 100 mg of the coating was scraped off with a sharp blade, and was extracted in 1.5 mL of absolute ethanol for UV-visible spectroscopy analysis, to obtain a datum of CR organic dye concentration in the film prior to photocatalysis. Similarly, another 100 mg portion of coating scraped off and extracted after 6 hours of sunlight exposure, and the percentage of dye degradation was calculated by UV-visible spectrophotometry.
To investigate the photopassivation effectiveness of a separate cerium (III) compound in a dry (solid) paint film coating, insoluble cerium (III) carbonate particles and CR organic dye at a concentration of 3×10^−5 M were incorporated into a waterborne acrylic paint formulation dispersion, using either Ti-Pure-R706 or the same rutile TiO2 used in Example 1 as the pigment, and assessed the rate of dye photodegradation relative to an identical dispersion, in the absence of cerium (III) carbonate particles.
The composition of this dispersion, and the procedure for synthesizing the dried coating film is described in the paragraph below. […]

[2] = MB dye photodecomposition under 254 nm light in the absence of any added photocatalyst; details: 1 mg in 10 mL 10^−5 M MB, up to 60 min, no photocatalyst
Excerpt: Though photocatalysis increases photodecomposition of organics, thought to be mediated by generation of reactive oxygen species (ROS), organic molecules have their own absorptivity of light due to presence of light-absorbing chemical substituents. This absorptivity of light can itself produce radicals in water, which even in the absence of a photocatalyst per se, can ultimately lead to photodegradation/decomposition of organics. Here it was investigated whether it was possible to reduce the inherent photodecomposition/degradation of methylene blue (MB) dye under exposure to 254 nm light, by using cerium (III) carbonate, in the absence of any added photocatalyst.
Two separate sets of photoreactions were performed: (1) 10 mL aqueous solution of 10^−5 M MB dye was exposed to 254 nm light under a photoreactor setup for a duration of up to 60 min and (2) 1 mg Ce2(CO3)3·4H2O that was synthesized according to the procedure described in Example 3 was dispersed in a 10 mL aqueous solution of 10^−5 M MB dye, and the resulting slurry was exposed to 254 nm light under photoreactor setup for a duration of up to 60 min.

[3] = MB organic dye photodegradation in aqueous slurry with P25 photocatalyst under 254 nm light; details: 1 mg Ce2(CO3)3·4H2O versus 11.4 mg Ce (III)-R706, 2 mg P25
[4] = CR dye photodegradation in TiO2-based sunscreen film (Neutrogena Broad Spectrum Mineral Sunscreen SPF 60+); details: 3.0 wt. % added agent relative to sunscreen weight
Description: Films on filter paper were fabricated and photoreactor experiments were conducted exactly the same way as described in Example 7.3, using CR dye, except UV irradiation in the photoreactor was conducted for a period of 4 h. These films contained either no UV-protecting agent, 3.0 wt. % of Ce2(CO3)3·6H2O that was synthesized according to Example 3, 3.0 wt. % of commercial Ce2(CO3)3·xH2O (Acros Organics), or 3.0 wt. % of ZnO (NANOBYK-3840). […] Upon adding 3 wt. % of Ce2(CO3)3·6H2O synthesized according to Example 3 to the sunscreen formulation, a decrease in the amount of CR dye photodegradation to 15±1% is observed. […] When cerium carbonate consisting of Ce2(CO3)3·xH2O from Acros Organics is instead used in place of Ce2(CO3)3·6H2O synthesized according to Example 3, photoprotection with 24±2% CR dye photodegradation is observed. The properties of Ce2(CO3)3·xH2O from Acros Organics have been ascribed in Example 4, and these aspects are borne out in conjunction with sunscreen-based formulations here as well. When instead of cerium carbonate ZnO (NANOBYK-3840) is used as a UV-protecting agent, less effect on CR dye photodegradation is observed. This is a similar outcome to observations with MB dye and ZnO-based sunscreen formulation in Example 7.2.
The amount of Ce2(CO3)3·6H2O synthesized according to Example 3 that was incorporated into the TiO2-based sunscreen was increased to 5.0 wt. %, and results are shown in FIGS. 23A-23B and are summarized in Table 4. […] There is a slight diminishing return for adding Ce2(CO3)3·6H2O both here and in Example 7.2, but the effect of increasing Ce2(CO3)3·6H2O on organic-molecule photoprotection is much more pronounced than in the case of ZnO.

| Compound | photodegradation of CR organic dye in dried paint film ([1]; Ti-Pure R706 pigment, 2 wt. % cerium (III) carbonate relative to pigment) [%] | photodegradation of CR organic dye in dried paint film ([1]; Ti-Pure R706 pigment, 5 wt. % cerium (III) carbonate relative to pigment) [%] | photodegradation of CR organic dye in dried paint film ([1]; rutile TiO2 pigment, 2 wt % cerium (III) carbonate relative to pigment) [%] | photodegradation of CR organic dye in dried paint film ([1]; rutile TiO2 pigment, 5 wt % cerium (III) carbonate relative to pigment) | fold decreased rate of MB dye photodecomposition compared to control MB solution [2] [fold] | fold lower rate constant than with the same amount of cerium as Ce (III)-R706 [3] [fold] | % of CR dye photodegradation after 4 h of UV irradiation in photoreactor ([4]; listed as Ce2(CO3)3·xH2O from Acros Organics) [%] | % of CR dye photodegradation after 4 h of UV irradiation in photoreactor ([4]; listed as Commercial Ce2(CO3)3•xH2O (Acros Organics)) [%] |
| --- | --- | --- | --- | --- | --- | --- | --- | --- |
| O=C([O-])[O-].O=C([O-])[O-].O=C([O-])[O-].[Ce+3].[Ce+3] [Ce2(CO3)3·4H2O] | 29 | 12 | 20 | did not show any detectable CR dye photodegradation | ~40 | 1.5 |  |  |
| Ce2(CO3)3·xH2O [Ce2(CO3)3·xH2O (ACROS Organics)] |  |  |  |  |  |  | 24±2 | 24 ± 2 |
